Test results: patent US20190112317A1, “ACTIVATORS OF AUTOPHAGIC FLUX AND PHOSPHOLIPASE D AND CLEARANCE OF PROTEIN AGGREGATES INCLUDING TAU AND TREATMENT OF PROTEINOPATHIES” (The Trustees of Columbia University in the City of New York, priority 2015, published 2019)

Test: Photodiode array (PDA) detection of compound in mouse brain
Assay type: in vivo
Conditions: PDA spectrum, FIG. 1
Description: FIG. 1 is a graph showing a photodiode array (PDA) spectrum of WHYKD8 in mouse brain.
A photodiode array (PDA) was used to detect WHYKD8 in mouse brain (FIG. 1).

Detection in mouse brain: readily detected
SMILES: Oc1ccc(CCNc2ncnc3ccc(Cl)cc23)cc1 [WHYKD8]
